Source: patent US20250368667A1, “USP1 INHIBITOR” (Shanghai Qilu Pharmaceutical Research and Development …, priority 2022, published 2025)
pIC50: −log10 of the molar value.

molecular target: recombinant human His6-USP1/His6-UAF1 composite protein (Homo sapiens (Human), UniProt O94782); experiment: USP1 enzyme activity detection (Ub-Rho fluorescence); assay type: biochemical; settings: USP1/UAF1, Ub-Rho substrate 300 nM, 1 hour pre-incubation; read-out: IC50 (enzymatic inhibition of USP1)
Sequence (O94782 whole entry): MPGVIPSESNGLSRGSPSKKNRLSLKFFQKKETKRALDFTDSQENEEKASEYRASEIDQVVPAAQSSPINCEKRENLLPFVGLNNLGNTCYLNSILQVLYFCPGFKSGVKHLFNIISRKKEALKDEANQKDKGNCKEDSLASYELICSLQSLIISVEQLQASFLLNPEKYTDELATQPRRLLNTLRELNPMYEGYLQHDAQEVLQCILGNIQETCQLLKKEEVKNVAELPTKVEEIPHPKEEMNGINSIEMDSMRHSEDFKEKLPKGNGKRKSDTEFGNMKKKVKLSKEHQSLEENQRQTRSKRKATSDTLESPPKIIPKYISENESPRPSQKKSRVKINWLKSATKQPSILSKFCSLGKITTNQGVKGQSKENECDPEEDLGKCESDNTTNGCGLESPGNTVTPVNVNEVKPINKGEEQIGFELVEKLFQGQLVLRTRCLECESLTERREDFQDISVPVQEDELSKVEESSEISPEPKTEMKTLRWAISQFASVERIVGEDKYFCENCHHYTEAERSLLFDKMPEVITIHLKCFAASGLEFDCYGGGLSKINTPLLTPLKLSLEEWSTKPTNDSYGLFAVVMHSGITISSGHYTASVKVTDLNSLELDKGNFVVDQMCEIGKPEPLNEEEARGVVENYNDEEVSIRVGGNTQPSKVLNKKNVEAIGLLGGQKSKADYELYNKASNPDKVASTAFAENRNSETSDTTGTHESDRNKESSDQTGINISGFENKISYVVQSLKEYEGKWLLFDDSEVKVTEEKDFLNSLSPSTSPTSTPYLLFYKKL
Sequence (Q8TAF3 whole entry partner): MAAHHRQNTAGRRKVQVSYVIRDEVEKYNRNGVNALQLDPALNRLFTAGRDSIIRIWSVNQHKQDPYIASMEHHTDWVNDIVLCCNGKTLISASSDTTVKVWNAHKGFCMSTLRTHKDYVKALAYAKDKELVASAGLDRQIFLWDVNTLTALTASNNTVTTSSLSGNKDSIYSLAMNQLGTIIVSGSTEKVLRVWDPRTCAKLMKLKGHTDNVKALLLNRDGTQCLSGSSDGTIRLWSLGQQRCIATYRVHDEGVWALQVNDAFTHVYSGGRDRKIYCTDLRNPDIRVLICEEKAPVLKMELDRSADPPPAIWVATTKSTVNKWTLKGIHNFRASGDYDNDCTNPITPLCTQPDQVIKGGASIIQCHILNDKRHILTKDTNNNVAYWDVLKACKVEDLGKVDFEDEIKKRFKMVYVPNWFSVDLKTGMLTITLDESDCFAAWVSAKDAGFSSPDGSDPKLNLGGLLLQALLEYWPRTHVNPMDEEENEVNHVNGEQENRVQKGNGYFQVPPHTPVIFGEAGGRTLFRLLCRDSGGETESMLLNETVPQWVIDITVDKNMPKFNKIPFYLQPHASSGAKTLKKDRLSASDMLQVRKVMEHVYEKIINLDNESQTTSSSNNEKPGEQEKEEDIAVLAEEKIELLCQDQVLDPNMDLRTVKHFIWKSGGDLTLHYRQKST

| SMILES | pIC50 |
| --- | --- |
| COc1ncnc(C2CC2)c1-c1ncc2c3ncccc3n(Cc3ccc(-c4nc(C(F)(F)F)cn4C(C)C)cc3)c2n1 [Compound 3, 2-(4-cyclopropyl-6-methoxypyrimidin-5-yl)-9-(4-(1-isopropyl-4-(trifluoromethyl)-1H-imidazo 1-2-yl)benzyl)-9H-pyridino[2′,3′: 4,5]pyrrolo[2,3-d]pyrimidine] | 8.26 |
| COc1ncnc(C2CC2)c1-c1ncc2c3cccc(F)c3n(Cc3ccc(-c4nc(C(F)(F)F)cn4C(C)C)cc3)c2n1 [Compound 6, 2-(4-cyclopropyl-6-methoxypyrimidin-5-yl)-8-fluoro-9-(4-(1-isopropyl-4-(trifluoromethyl)-1H-imidazol-2-yl)benzyl)-9H-pyrimido[4,5-b]indole] | 8.22 |
| COc1ccc2c3cnc(-c4c(OC)ncnc4C4CC4)nc3n(Cc3ccc(-c4nc(C(F)(F)F)cn4C(C)C)cc3)c2c1 [Compound 7, 2-(4-cyclopropyl-6-methoxypyrimidin-5-yl)-9-(4-(1-isopropyl-4-(trifluoromethyl)-1H-imidazo 1-2-yl)benzyl)-7-methoxy-9H-pyrimido[4,5-b]indole] | 8.24 |
| COc1ncnc(C2CC2)c1-c1ncc2c3ccc(C(F)(F)F)cc3n(Cc3ccc(-c4nc(C(F)(F)F)cn4C(C)C)cc3)c2n1 [Compound 8, 2-(4-cyclopropyl-6-methoxypyrimidin-5-yl)-9-(4-(1-isopropyl-4-(trifluoromethyl)-1H-imidazo 1-2-yl)benzyl)-7-(trifluoroethyl)-9H-pyrimido[4,5-b]indole] | 7.68 |
| CCn1cc(C(F)(F)F)nc1-c1ccc(Cn2c3ccccc3c3cnc(-c4c(OC)ncnc4C4CC4)nc32)cc1 [Compound 9, 2-(4-cyclopropyl-6-methoxypyrimidin-5-yl)-9-(4-(1-ethyl-4-(trifluoromethyl)-1H-imidazol-2-yl)benzyl)-9H-pyrimido[4,5-b]indole] | 8.39 |
| COc1ncnc(C2CC2)c1-c1ncc2c3ccccc3n([C@H](C)c3ccc(-c4nc(C(F)(F)F)cn4C(C)C)cc3)c2n1 [Compound 13-P2] | 8.30 |
| COc1ncnc(C2CC2)c1-c1ncc2c3cc(F)ccc3n(Cc3ccc(-c4nc(C(F)(F)F)cn4C(C)C)cc3)c2n1 [Compound 15] | 7.91 |
| COc1ncnc(C2CC2)c1-c1ncc2c3cccc(F)c3n(Cc3ccc(-c4nc(C(F)(F)F)cn4C)cc3)c2n1 [Compound 27] | 8.00 |
| COc1ncnc(C2CC2)c1-c1ncc2c3ccc(C(N)=O)cc3n(Cc3ccc(-c4nc(C(F)(F)F)cn4C)cc3)c2n1 [Compound 28] | 8.23 |
| COc1ncnc(C2CC2)c1-c1ncc2c3ccc(S(N)(=O)=O)cc3n(Cc3ccc(-c4nc(C(F)(F)F)cn4C)cc3)c2n1 [Compound 30] | 8.24 |
| COc1ncnc(C2CC2)c1-c1ncc2c3c(n(Cc4ccc(-c5nc(C(F)(F)F)cn5C)cc4)c2n1)CCC3 [Compound 31] | 8.31 |
| COc1ncnc(C2CC2)c1-c1ncc2c(n1)n(Cc1ccc(-c3nc(C(F)(F)F)cn3C(C)C)cc1)c1nccn21 [Compound 32] | 7.72 |
| COc1ncnc(C2CC2)c1-c1ncc2c3cc(C(C)(C)O)ccc3n(Cc3ccc(-c4nc(C(F)(F)F)cn4C)cc3)c2n1 [Compound 34] | 7.21 |
| COc1ncnc(C2CC2)c1-c1ncc2c3cccnc3n(Cc3ccc(-c4nc(C(F)(F)F)cn4C(C)C)cc3)c2n1 [Compound 36] | 8.05 |
| COc1ncnc(C2CC2)c1-c1ncc2c3cc(S(C)(=O)=O)ccc3n(Cc3ccc(-c4nc(C(F)(F)F)cn4C)cc3)c2n1 [Compound 37] | 7.24 |

Continued by rising pIC50, values first:

| pIC50 | SMILES |
| --- | --- |
| 6.87 | COc1ncnc(C2CC2)c1-c1ncc2c3cc(C(F)(F)F)ccc3n(Cc3ccc(-c4nc(C(F)(F)F)cn4C(C)C)cc3)c2n1 [Compound 22] |
| 7.23 | COc1ncnc(C2CC2)c1-c1ncc2c3cc(C#N)ccc3n(Cc3ccc(-c4nc(C(F)(F)F)cn4C(C)C)cc3)c2n1 [Compound 12] |
| 7.45 | COc1ncnc(C2CC2)c1-c1ncc2c3ccccc3n(Cc3ccc(-n4nc(C)cc4C(F)(F)F)cc3)c2n1 [Compound 24] |
| 7.58 | COc1ccc2c(c1)c1cnc(-c3c(OC)ncnc3C3CC3)nc1n2Cc1ccc(-c2nc(C(F)(F)F)cn2C(C)C)cc1 [Compound 33] |
| 7.75 | CCOc1cc(C(F)(F)F)nn1-c1ccc(Cn2c3ccccc3c3cnc(-c4c(OC)ncnc4C4CC4)nc32)cc1 [Compound 10, 2-(4-cyclopropyl-6-methoxypyrimidin-5-yl)-9-(4-(5-ethoxy-3-(trifluoromethyl)-1H-pyrazol-1-yl)benzyl)-9H-pyrimido[4,5-b]indole] |
| 7.93 | CCC(c1ccc(-c2nc(C(F)(F)F)cn2C(C)C)cc1)n1c2ccccc2c2cnc(-c3c(OC)ncnc3C3CC3)nc21 (centres unmarked) [Compound 23] |
| 7.94 | COc1ncnc(C2CC2)c1-c1ncc2c3cccc(C#N)c3n(Cc3ccc(-c4nc(C(F)(F)F)cn4C)cc3)c2n1 [Compound 26] |
| 8.01 | CCn1cc(C(F)(F)F)nc1-c1ccc(Cn2c3nc(-c4c(OC)ncnc4C4CC4)ncc3c3cccc(F)c32)cc1 [Compound 35] |
| 8.03 | COc1ncnc(C2CC2)c1-c1ncc2c3ccccc3n(Cc3ccc(-n4nc(C(F)(F)F)cc4C)cc3)c2n1 [Compound 17] |
| 8.08 | COc1cc(Cn2c3ccccc3c3cnc(-c4c(OC)ncnc4C4CC4)nc32)cc(F)c1-c1nc(C(F)(F)F)cn1C(C)C [Compound 19] |
| 8.12 | COc1ncnc(C2CC2)c1-c1ncc2c3ccccc3n(Cc3ccc(-c4nc(C(F)(F)F)cn4C(C)C)cc3)c2n1 [Compound 2, 2-(4-cyclopropyl-6-methoxypyrimidin-5-yl)-9-(4-(1-isopropyl-4-(trifluoromethyl)-1H-imidazo 1-2-yl)benzyl)-9H-pyrimido[4,5-b]indole] |
| 8.12 | COc1ncnc(C2CC2)c1-c1ncc2c3ccccc3n(Cc3ccc(-c4nc(C(F)(F)F)cn4C(C)C)nc3)c2n1 [Compound 16] |
| 8.13 | COc1cc(Cn2c3ccccc3c3cnc(-c4c(OC)ncnc4C4CC4)nc32)ccc1-c1nc(C(F)(F)F)cn1C(C)C [Compound 18] |
| 8.16 | COc1ncnc(C2CC2)c1-c1ncc2c3c(F)cccc3n(Cc3ccc(-c4nc(C(F)(F)F)cn4C(C)C)cc3)c2n1 [Compound 4, 2-(4-cyclopropyl-6-methoxypyrimidin-5-yl)-5-fluoro-9-(4-(1-isopropyl-4-(trifluoromethyl)-1H-imidazol-2-yl)benzyl)-9H-pyrimido[4,5-b]indole] |
| 8.22 | COc1ncnc(C2CC2)c1-c1ncc2c3ccccc3n([C@@H](C)c3ccc(-c4nc(C(F)(F)F)cn4C(C)C)cc3)c2n1 [Compound 13-P1] |
| 8.34 | COc1ncnc(C2CC2)c1-c1ncc2c3ccncc3n(Cc3ccc(-c4nc(C(F)(F)F)cn4C(C)C)cc3)c2n1 [Compound 29] |
| 8.36 | COc1ncnc(C2CC2)c1-c1ncc2c3ccc(C#N)cc3n(Cc3ccc(-c4nc(C(F)(F)F)cn4C)cc3)c2n1 [Compound 21] |
| 8.36 | COc1ncnc(C2CC2)c1-c1ncc2c3ccc(S(C)(=O)=O)cc3n(Cc3ccc(-c4nc(C(F)(F)F)cn4C(C)C)cc3)c2n1 [Compound 14] |
| 8.39 | COc1ncnc(C2CC2)c1-c1ncc2c3ccccc3n(Cc3ccc(-c4nc(C(F)(F)F)cn4C)cc3)c2n1 [Compound 1, 2-(4-cyclopropyl-6-methoxypyrimidin-5-yl)-9-(4-(1-methyl-4-(trifluoromethyl)-1H-imidazol-2-yl)benzyl)-9H-pyrimido[4,5-b]indole] |
| 8.49 | CC(C)n1ncc(Cl)c1-c1ncc2c3ccccc3n(Cc3ccc(-c4nc(C(F)(F)F)cn4C)cc3)c2n1 [Compound 20] |
